The IC50 is the midpoint of a concentration-inhibition curve. In general, inhibition refers to the percentage by which the read-out fell short of the control. Low readings indicate little suppression, high ones strong suppression.

Assay [1] relates to human pharyngeal cancer cell line FaDu. The experiment in a line: Antitumor test (3), subcutaneous xenograft. It is filed as in vivo, mouse. Particulars: single administration. How it is done: Mouse: Five- to six-week-old female BALB/c nude mice (Charles River Laboratories Japan, Inc.) were subjected to experiment. Assay and calculation formula: In all of the studies, the major axis and minor axis of a tumor were measured twice a week by using an electronic digital caliper ([…] Corp.), and the tumor volume (mm^3) was calculated. The calculation formula is as shown below. [formula] Each of the anti-CLDN6 antibody-drug conjugate ADC1, the anti-HER2 antibody-drug conjugate ADC2, and the anti-TROP2 antibody-drug conjugate ADC3 was diluted with ABS buffer (10 mM acetate buffer (pH 5.5), 5% sorbitol), and a liquid volume of 10 mL/kg was intravenously administered into the tail vein. […] LLC)/Dulbecco's Phosphate-Buffered Saline, and then a liquid volume of 10 mL/kg was intraperitoneally administered. […] LLC)/Dulbecco's Phosphate-Buffered Saline, and then a liquid volume of 10 mL/kg was orally administered. Niraparib was dissolved in DMSO, diluted with 0.5% methylcellulose, and then a liquid volume of 10 mL/kg was orally administered. The described method is common to Examples 34 to 37. […]

The subject of assay [2] is human lung cancer cell line Calu-6. The experiment in a line: Cell growth inhibition test (1). Type of assay: cell-based. To be noted: for IC50: Calu-6, 144 h. As for the experimental part: The human lung cancer cell line Calu-6 obtained from ATCC (American Type Culture Collection) was used for evaluation. Cells were prepared with MEM containing 10% fetal bovine serum (GE Healthcare), MEM Non-Essential Amino Acids Solution (Thermo Fisher Scientific), and Sodium Pyruvate (Thermo Fisher Scientific) (Thermo Fisher Scientific; hereinafter, referred to as EMEM medium) to reach 1.25×10^4 cells/mL, and 80 μL portions of them were added into a 96-well cell culture microplate. After addition of the cells, the cells were cultured at 37° C. and 5% CO2 overnight.
On the next day, 10 μL portions of pyrrolobenzodiazepine derivative A, B, or C diluted with EMEM medium to 100 pM, 50 pM, 25 pM, 12.5 pM, 6.25 pM, 3.13 pM, 1.56 pM, or 0.78 pM were added to the microplate. To each well without any pyrrolobenzodiazepine derivative, 10 μL of EMEM medium was added. Further, 10 μL portions of olaparib prepared with EMEM medium to reach 2 μM were added to the microplate. To each well without olaparib, 10 μL of EMEM medium was added. Thereafter, the microplate was cultured at 37° C. and 5% CO2 for 6 days. After culturing, the microplate was taken out of the incubator, and left to stand at room temperature for 30 minutes. CellTiter-Glo Luminescent Cell Viability Assay (Promega Corporation) in an amount equivalent to that of the culture solution was added, and stirred using a plate mixer. The microplate was left to stand at room temperature for 10 minutes, and thereafter the amount of emission was measured by using a plate reader (PerkinElmer).
Cell survival rates in wells with derivative A, B, or C were calculated by using the following formula.
[formula] • a: Mean value of amounts of emission from wells with derivative A, B, or C • b: Mean value of amounts of emission from wells with medium • IC50 values were calculated by using the following formula.
[formula] • a: Concentration of derivative A, B, or C, a • b: Concentration of derivative A, B, or C, b • c: Cell survival rate when derivative A, B, or C of concentration a was added • d: Cell survival rate when derivative A, B, or C of concentration b was added • a and b satisfy a>b at points sandwiching a cell survival rate of 50%.
Cell survival rates in wells with derivative A, B, or C added together with 2 μM olaparib were calculated by using the following formula.
[formula] a: Mean value of amounts of emission from wells with derivative A, B, or C added together with 2 μM olaparib • b: Mean value of amounts of emission from wells with 2 μM olaparib • IC50 values were calculated by using the following formula.
[formula] • a: Concentration of derivative A, B, or C, a • b: Concentration of derivative A, B, or C, b • c: Cell survival rate when derivative A, B, or C of concentration a and 2 μM olaparib were added • d: Cell survival rate when derivative A, B, or C of concentration b and 2 μM olaparib were added • a and b satisfy a>b at points sandwiching a cell survival rate of 50%.

Read-outs that look alike come from different tables or passages of the source.

As to `Cn1ncnc1[C@H]1c2n[nH]c(=O)c3cc(F)cc(c23)N[C@@H]1c1ccc(F)cc1` [talazoparib], the “tumor growth inhibition (TGI)” value in assay [1] (talazoparib 0.8 mg/kg oral for 5 days from Day 0, Day 25, FaDu) is 33%. For `COc1ccc(C2=CN3C(=O)c4cc(OC)c(OCCCCCOc5cc6c(cc5OC)C(=O)N5CC7(CC7)C[C@H]5C=N6)cc4NC[C@@H]3C2)cc1` [derivative A, (11a′S)-7′-Methoxy-8′-[(5-{[(11aS)-7-methoxy-2-(4-methoxyphenyl)-5-oxo-5,10,11,11a-tetrahydro-1H-pyrrolo[2,1-c][1,4]benzodiazepin-8-yl]oxy}pentyl)oxy]-1′,11a′-dihydro-5′H-spiro[cyclopropane-1,2′-pyrrolo[2,1-c][1,4]benzodiazepine]-5′-one], the half-inhibitory concentration (IC50) is 6.8 pM in assay [2] (read-out: IC50, growth-suppressing effect, added singly, Calu-6, 6 days) and 4.3 pM in assay [2] (read-out: IC50, growth-suppressing effect, added together with 2 μM olaparib, Calu-6, 6 days). `O=C(c1cc(Cc2n[nH]c(=O)c3ccccc23)ccc1F)N1CCN(C(=O)C2CC2)CC1` [olaparib, reference compound]: in assay [2] (144 h, 2 μM olaparib alone, Calu-6, 6 days), the inhibition at 2 µM is < 10%. Moreover, the “tumor growth inhibition (TGI)” value in assay [1] (olaparib 50 mg/kg i.p. for 5 days from Day 0, Day 25, FaDu) was 7%.

For the origin of these results see patent US12648946B2, “Combination of antibody-pyrrolobenzodiazepine derivative conjugate and PARP inhibitor” (DAIICHI SANKYO COMPANY, LIMITED, priority 2019, dated 2026).
